Measured values taken from patent US12668589B2, “N-formamidopyrazoline derivative as P2X3 receptor antagonist and use thereof” (HANGZHOU WESTAN PHARMACEUTICAL TECHNOLOGY CO., LTD, priority 2020, dated 2026).

Legend:
[1] = target: T1, human P2X2/3 (Homo sapiens, UniProt P56373+Q9UBL9); test: Inhibitory activity against human P2X2/3 (electrophysiological method); format: cell-based; conditions: read-out: hP2X2/3 (IC50)
T1 construct: expressed in transfected cells; host or cells: HEK293
T1 sequence (P56373 1-397): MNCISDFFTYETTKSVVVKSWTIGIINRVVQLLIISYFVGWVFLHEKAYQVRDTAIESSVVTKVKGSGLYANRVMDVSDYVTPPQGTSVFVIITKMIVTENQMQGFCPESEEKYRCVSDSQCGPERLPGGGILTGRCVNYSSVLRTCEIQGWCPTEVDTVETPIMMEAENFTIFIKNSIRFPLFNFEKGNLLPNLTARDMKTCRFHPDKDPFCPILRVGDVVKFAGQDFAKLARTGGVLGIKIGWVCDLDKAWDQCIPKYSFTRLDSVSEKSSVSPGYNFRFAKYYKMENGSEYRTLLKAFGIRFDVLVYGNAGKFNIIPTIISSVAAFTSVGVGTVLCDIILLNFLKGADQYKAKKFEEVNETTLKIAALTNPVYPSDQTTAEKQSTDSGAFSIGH
T1 sequence (Q9UBL9 1-471): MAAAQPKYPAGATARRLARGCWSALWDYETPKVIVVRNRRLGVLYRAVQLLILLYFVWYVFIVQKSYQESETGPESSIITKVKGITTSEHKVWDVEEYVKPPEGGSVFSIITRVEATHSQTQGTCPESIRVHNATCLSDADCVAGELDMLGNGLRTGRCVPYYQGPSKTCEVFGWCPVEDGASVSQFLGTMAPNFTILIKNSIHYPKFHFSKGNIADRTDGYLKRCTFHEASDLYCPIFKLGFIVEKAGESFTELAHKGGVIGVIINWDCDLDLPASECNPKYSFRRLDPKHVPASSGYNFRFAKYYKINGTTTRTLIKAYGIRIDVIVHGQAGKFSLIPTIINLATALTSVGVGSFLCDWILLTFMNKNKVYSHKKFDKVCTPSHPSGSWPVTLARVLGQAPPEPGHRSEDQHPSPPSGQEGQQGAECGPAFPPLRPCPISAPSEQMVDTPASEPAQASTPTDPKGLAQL

[2] = target: T2, human P2X3 (Homo sapiens, UniProt P56373); test: cell-based
T2 sequence (P56373 1-397): T1 sequence (P56373 1-397)
Procedure: An HEK293 cell line was used as cells. HEK293 cells were placed in a 37° C. incubator with 5% CO2 for culture. Passage was conducted when the cells grew to a density of 80% to 90%. A culture medium in an original 60 mm culture dish was discarded. After the cells were washed 3 times with a sterilized PBS solution, and the solution was blotted up. […] After the trypsin was blotted up, 3 mL of a cell culture medium was added to resuspend the cells. 0.5 mL of a resuspension solution was taken to be added into a new culture dish, and an total culture solution was supplemented to 5 mL. The culture dish was gently shaken to distribute the cells evenly, and then placed in a 37° C. incubator with 5% CO2 for culture.
First, treated slides were spread in a small 35 mm culture dish. 100 μL of resuspended cells were added, and then a total amount of a culture medium was supplemented to 2 mL. Target genes were transferred into the HEK293 cell line by adopting a calcium transfection method. Small dishes to be transfected were subjected to medium change 1 hour before transfection. 2 mL of a fresh cell culture solution was added. A 1.5 mL EP tube was taken, 200 μL of a 0.25 M CaCl2) solution was added, and 3 μg of plasmids to be transfected were added, and even mixing was conducted to form a DNA-CaCl2 solution. […] A pipette tip was used for mixing while adding. After adding all, gentle blowing and beating were conducted 8 to 10 times. After still standing for 5 minutes, they were added into small dishes. The small dishes were shaken slightly to mix the solution evenly, and the placed in a cell incubator. Culture mediums were replaced after 8 to 10 hours. Electrophysiological experiments were performed 24 to 48 hours after transfection.
Electrophysiological recording electrodes were obtained by two-step pulling by using an electrode puller (PP-10, Narishige). After an internal solution is injected into the electrodes, a water inlet resistance is 3 to 5 MΩ. During the experiment, a high potassium salt internal solution containing nystatin (K2SO4 of 75 mM, KCl of 120 mM, MgSO4 of 5 mM, HEPES of 10 mM, adjusting pH to 7.2 with Tris-base, and used after filtration) was used as an electrode internal solution. After the cells were sealed by the electrodes, there was no need to further break cell membranes in a sucked manner, but the cell membranes were bored through the perforation of the nystatin to the cell membranes, to form a hole channel. […] A clamping voltage was −60 mV, a sampling frequency was 10 kHz, and filtering was conducted at 2 kHz.
A working concentration of a P2X3 receptor agonist ATP was 1 μM, and an interval time between two times of ATP administrations was 10 minutes.

IC50 [1]: 2.42 µM
IC50 [2]: 0.056 µM
Structure (SMILES): Cc1ccc(C2=NN(C(=O)N[C@H](C)c3ccc(C(F)(F)F)nc3)C[C@@H]2N2CCOC2=O)cc1 [Compound 22]
